# Assays:
# [1] = species: Mus musculus; test: […] effect on UVB-induced murine epidermal barrier disruption to control water loss in mice in experiment 1; format: functional
# [2] = species: Mus musculus; test: […] effect on UVB-induced murine epidermal barrier disruption to control water loss in mice in experiment 2; format: functional
# [3] = molecular target: T1, Lysosomal acid glucosylceramidase (Homo sapiens) (UniProt P04062); test: In vitro beta--Glucocerebrosidase (beta-GlcCer'ase) activity in cultured human keratinocytes; format: cell-based; design: reference not given here
# T1 sequence (whole entry): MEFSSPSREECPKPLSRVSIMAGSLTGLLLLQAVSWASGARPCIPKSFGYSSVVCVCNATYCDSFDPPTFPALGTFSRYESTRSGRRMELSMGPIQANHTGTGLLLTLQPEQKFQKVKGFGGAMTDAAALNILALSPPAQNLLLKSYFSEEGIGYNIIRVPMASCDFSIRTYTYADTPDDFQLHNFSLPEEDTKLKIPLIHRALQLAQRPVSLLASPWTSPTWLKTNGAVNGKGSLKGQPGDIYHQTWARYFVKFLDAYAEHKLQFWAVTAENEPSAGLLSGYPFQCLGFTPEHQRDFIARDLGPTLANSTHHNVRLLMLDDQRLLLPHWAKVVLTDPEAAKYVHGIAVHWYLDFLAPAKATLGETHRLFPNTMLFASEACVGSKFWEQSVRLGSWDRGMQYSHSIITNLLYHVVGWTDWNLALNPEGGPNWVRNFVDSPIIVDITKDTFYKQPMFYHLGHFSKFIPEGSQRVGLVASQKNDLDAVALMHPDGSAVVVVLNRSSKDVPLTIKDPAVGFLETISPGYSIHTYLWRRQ
SMILES,TEWL [1],TEWL [2],Activity [3]
"CCCCCCCCCCCCCCCCCC(=O)N[C@@H](CO[C@@H]1O[C@@H](CO)C(O)[C@H](O)[C@@H]1O)C(=O)NCCCCCC (single isomer, unassigned)",2.01,2.19,1.42
"CCCCCCCCCCCCCCCC(=O)N[C@@H](CO[C@@H]1O[C@@H](CO)C(O)[C@H](O)[C@@H]1O)C(=O)NCCCCCCCCCCCCCC (single isomer, unassigned)",,,1.37
"CCCCCCCCCCCCCCCCCC(=O)N[C@@H](CO[C@@H]1O[C@@H](CO)C(O)[C@H](O)[C@@H]1O)C(=O)NCCCCCCCCCC (single isomer, unassigned)",,,1.2
"CCCCCCCCCCCCCCCCCC(=O)N[C@@H](CO[C@@H]1O[C@@H](CO)C(O)[C@H](O)[C@@H]1O)C(=O)NCCCCCCCCCCCCCC (single isomer, unassigned)",,,1.24
"CCCCCCCCCCCCCCNC(=O)[C@H](CO[C@@H]1O[C@@H](CO)C(O)[C@H](O)[C@@H]1O)NC(=O)CCCCCCC (single isomer, unassigned)",,,0.87
